Results reported in patent US20050113396A1, “2-Guanidino-4-heterocyclylquinazolines” (priority 2001, published 2005).
Where a name gives a salt, the structure may show the parent alone.

SMILES | melting point
NC(N)=Nc1nc(-n2c(Br)ccc2Br)c2cc(Cl)ccc2n1 (as salt: HCl) [Example 196] | 302 °C
Cc1noc(C)c1-c1nc(N=C(N)N)nc2ccc(Cl)cc12 (as salt: HCl) [Example 215] | 317 to 320 °C
COc1ncc(-c2nc(N=C(N)N)nc3ccc(Cl)cc23)c(OC)n1 (as salt: HCl) [Example 235] | 270 to 275 °C
